The text below walks through data of patent US20160046618A1, “Cyclopropyl Fused Thiazin-2-Amine Compounds as Beta-Secretase Inhibitors and Methods of Use” (AMGEN INC., priority 2014, published 2016).

SMILES strings stand for the structures. Like-named read-outs stand apart in the source and are kept apart here. Where only a bound is given, the exact number is not on record here.

Assay [1] deals with human recombinant BACE1 (Homo sapiens (Human), UniProt P56817). The assay is described as follows: In vitro enzymatic BACE1 FRET assay. Format: biochemical. The following applies: read-out: IC50 IP (μM) BACE1 enzyme. The method in brief: (§1)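 FRET cleavage assay using Ni-NTA-purified recombinant protease and 50 nM quenched peptide substrate, 1 h. Stopped by neutralising with Tris; fluorescence at 488/590 nm.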

In assay [2] the target is Recombinant Cat D (Homo sapiens (Human), UniProt P07339). The assay is described as follows: In vitro enzymatic Cathepsin D (Cat D) FRET assay. Format: biochemical. The following applies: read-out: IC50 IP (μM) CatD. The gist of the method: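 CHO-expressed enzyme; buffer 0.05 M citrate pH 3.5, 5 mM CHAPS, 10% DMSO final. Start with FRET substrate 20 nM, 1 h incubation, Tris stop (pH to neutral), fluorescence ex 500 nm/em 580 nm.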

Assay [3] concerns Aβ 40 in rat brain. As to the kind of experiment: In vivo inhibition of beta-secretase: Aβ40 reduction in rat brain. The following applies: 10 mpk, after 4 h. The text has this:
(§2) In Vivo Inhibition of Beta-Secretase
Several animal models, including mouse, rat, dog, and monkey, may be used to screen for inhibition of beta-secretase activity in vivo following administration of a test compound sample. Animals used in this invention can be wild type, transgenic, or gene knockout animals. […] One to twenty-four hours following the administration of compound, animals are sacrificed, and brains as well as cerebrospinal fluid (CSF) and plasma are removed for analysis of A-beta levels and drug or test compound concentrations (Dovey et al., 2001, Journal of Neurochemistry, 76,173-181) Beginning at time 0, animals are administered by oral gavage, or other means of delivery such as intravenous injection, an inhibitory test compound of up to 100 mg/kg in a standard, conventional formulation, such as 2% hydroxypropyl methylcellulose, 1% Tween80. A separate group of animals receive 2% hydroxypropyl methylcellulose, 1% Tween80 alone, containing no test compound, and serve as a vehicle-control group. At the end of the test period, animals are sacrificed and brain tissues, plasma or cerebrospinal fluid are collected. […] Homogenates are centrifuged at 355,000 g, 4° C. for 30 minutes. CSF or brain supernatants are then analyzed for the presence of A-beta peptide by specific sandwich ELISA assays based on ECL (Electrochemiluminescence) technology. For example, rat Abeta40 is measured using biotinylated-4G8 (Signet) as a capture antibody and Fab40 (an in-house antibody specific to the C-terminal of Abeta40) as a detection antibody.
(§3) Actual vehicles used: Oral: 2% HPMC, 1% Tween80, pH 2.2

Assay [4] relates to Aβ 40 in rat CSF. The assay is described as follows: In vivo inhibition of beta-secretase: Aβ40 reduction in rat CSF. Particulars: 10 mpk, after 4 h.
Excerpt: as §2
Several animal models, including mouse, rat, dog, and monkey, may be used to screen for inhibition of beta-secretase activity in vivo following administration of a test compound sample. Animals used in this invention can be wild type, transgenic, or gene knockout animals. For example, the Tg2576 mouse model, prepared and conducted as described in Hsiao et al., 1996, Science 274, 99-102, and other non-transgenic or gene knockout animals are useful to analyze in vivo inhibition of Amyloid beta peptide (Abeta) production in the presence of inhibitory test compounds. Generally, 2 to 18 month old Tg2576 mice, gene knockout mice or non-transgenic animals are administered test compounds formulated in vehicles, such as cyclodextran, phosphate buffers, hydroxypropyl methylcellulose or other suitable vehicles. One to twenty-four hours following the administration of compound, animals are sacrificed, and brains as well as cerebrospinal fluid (CSF) and plasma are removed for analysis of A-beta levels and drug or test compound concentrations (Dovey et al., 2001, Journal of Neurochemistry, 76,173-181) Beginning at time 0, animals are administered by oral gavage, or other means of delivery such as intravenous injection, an inhibitory test compound of up to 100 mg/kg in a standard, conventional formulation, such as 2% hydroxypropyl methylcellulose, 1% Tween80. A separate group of animals receive 2% hydroxypropyl methylcellulose, 1% Tween80 alone, containing no test compound, and serve as a vehicle-control group. At the end of the test period, animals are sacrificed and brain tissues, plasma or cerebrospinal fluid are collected. […] Homogenates are centrifuged at 355,000 g, 4° C. for 30 minutes. CSF or brain supernatants are then analyzed for the presence of A-beta peptide by specific sandwich ELISA assays based on ECL (Electrochemiluminescence) technology. For example, rat Abeta40 is measured using biotinylated-4G8 (Signet) as a capture antibody and Fab40 (an in-house antibody specific to the C-terminal of Abeta40) as a detection antibody. For example, 4 hours after administration of 30 mg/kg oral dose of the test compound in 2% hydroxypropyl methylcellulose, 1% Tween80 (pH2.2) to 200 g male Sprague Dawley rats, amyloid beta peptide levels are measured for reduction by X % and Y % in cerebrospinal fluid and brain, respectively, when compared to the levels measured in the vehicle-treated or control mice.
as §3
The compounds of the invention may be shown to reduce the formation and/or deposition of amyloid beta peptide in the cerebrospinal fluid (CSF) as well as in the brain of a mouse or rat at either 3 mpk, 10 mpk or 30 mpk (mpk=mg compound per kg weight of the animal) dosing concentrations after 4 h.

The target of assay [5] is human recombinant BACE2 (Homo sapiens (Human), UniProt Q9Y5Z0). The assay is described as follows: In vitro enzymatic BACE2 FRET assay. The following applies: read-out: IC50 IP (μM) BACE2 enzyme. The format is biochemical. The gist of the method:
as §1

Assay [6] relates to Aβ40 in conditioned medium of cells stably expressing Amyloid Precursor Protein (APP). The assay is described as follows: In vitro BACE-1 cell-based assay (Aβ40 sandwich ELISA). The following applies: read-out: IC50 IP (μM) BACE1 cell. The gist of the method: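 APP-stable cells, pre-cultured 24 h at 37° C in DMEM/10% FBS, were treated 24 h with compound in a 10-point series starting at 100 μM or 10 μM (0.1% DMSO final). Secreted Aβ40 in conditioned medium was measured by pAb40/biotin-6E10 sandwich ELISA with Europium time-resolved fluorescence; IC50 from percent inhibition versus concentration.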
On the technique in general: In an ELISA, binding on a coated surface is turned into a signal by an enzyme label.

human recombinant BACE2, sequence (Q9Y5Z0 63-518): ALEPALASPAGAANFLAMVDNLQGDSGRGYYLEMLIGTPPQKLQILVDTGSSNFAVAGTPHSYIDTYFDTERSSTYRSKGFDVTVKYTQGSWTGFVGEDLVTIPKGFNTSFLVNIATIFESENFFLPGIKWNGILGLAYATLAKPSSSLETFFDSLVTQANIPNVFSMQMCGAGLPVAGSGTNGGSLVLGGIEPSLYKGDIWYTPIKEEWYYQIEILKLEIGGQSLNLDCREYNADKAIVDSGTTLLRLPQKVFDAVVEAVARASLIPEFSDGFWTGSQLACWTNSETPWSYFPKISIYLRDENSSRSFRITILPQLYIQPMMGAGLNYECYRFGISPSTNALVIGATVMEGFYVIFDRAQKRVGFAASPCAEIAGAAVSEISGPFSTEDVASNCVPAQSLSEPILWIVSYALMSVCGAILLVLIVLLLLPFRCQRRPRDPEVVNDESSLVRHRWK
human recombinant BACE1, sequence (P56817 46-501): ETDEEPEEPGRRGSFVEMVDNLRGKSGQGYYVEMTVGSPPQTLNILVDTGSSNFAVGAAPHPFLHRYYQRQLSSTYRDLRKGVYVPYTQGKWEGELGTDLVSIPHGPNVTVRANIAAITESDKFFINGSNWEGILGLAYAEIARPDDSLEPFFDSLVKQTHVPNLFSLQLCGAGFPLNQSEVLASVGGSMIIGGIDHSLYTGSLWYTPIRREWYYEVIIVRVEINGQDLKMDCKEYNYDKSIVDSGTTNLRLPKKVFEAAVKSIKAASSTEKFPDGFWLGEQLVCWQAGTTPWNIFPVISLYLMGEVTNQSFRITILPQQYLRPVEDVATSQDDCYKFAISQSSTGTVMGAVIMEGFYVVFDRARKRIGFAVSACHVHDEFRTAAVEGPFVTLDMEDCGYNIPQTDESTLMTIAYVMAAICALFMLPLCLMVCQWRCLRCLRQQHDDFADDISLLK
Recombinant Cat D, sequence (P07339 65-412): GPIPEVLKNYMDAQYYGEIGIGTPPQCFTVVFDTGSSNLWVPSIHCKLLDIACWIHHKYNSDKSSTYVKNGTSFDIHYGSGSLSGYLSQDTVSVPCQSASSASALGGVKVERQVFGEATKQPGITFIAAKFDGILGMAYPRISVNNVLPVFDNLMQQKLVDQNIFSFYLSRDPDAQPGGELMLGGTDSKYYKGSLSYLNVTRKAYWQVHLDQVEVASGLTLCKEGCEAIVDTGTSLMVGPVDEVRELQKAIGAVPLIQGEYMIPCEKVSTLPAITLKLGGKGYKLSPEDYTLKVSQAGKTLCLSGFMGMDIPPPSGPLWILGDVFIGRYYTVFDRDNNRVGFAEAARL

In general, IC50 refers to the concentration needed to halve the response being measured. In the case of `C#CCOc1cnc2c(Nc3cc(F)c(F)c([C@@]4(C)N=C(N)S[C@@]5(C(N)=O)C[C@H]54)c3)nccc2n1` [Example 911, (1S,5S,6S)-3-amino-5-(2,3-difluoro-5-((2-(2-propyn-1-yloxy)pyrido[3,4-b]pyrazin-5-yl)amino)phenyl)-5-methyl-2-thia-4-azabicyclo[4.1.0]hept-3-ene-1-carboxamide], the IC50 in assay [1] was 0.000649 µM; in assay [2], over 400 µM; in assay [5], 0.00714 µM; in assay [6] it was 0.0038 µM. Also, the “% Aβ 40 reduction in rat brain at 10 mpk” value in assay [3] is on record as 20%. Besides, the “% Aβ 40 reduction in rat CSF at 10 mpk” value in assay [4] stood at 21%.

With `C#C[C@H](C)Oc1cnc2c(Nc3ccc(F)c([C@@]4(C)N=C(N)S[C@@]5(CF)C[C@H]54)c3)nccc2n1` [Example 827, N-(3-((1S,5S,6S)-3-amino-1-(fluoromethyl)-5-methyl-2-thia-4-azabicyclo[4.1.0]hept-3-en-5-yl)-4-fluorophenyl)-2-(((1S)-1-methyl-2-propyn-1-yl)oxy)pyrido[3,4-b]pyrazin-5-amine], the IC50 in assay [1] came to 0.000771 µM; in assay [2], 810 µM; in assay [5], 0.263 µM; in assay [6], 0.0207 µM. Moreover, the “% Aβ 40 reduction in rat brain at 10 mpk” value in assay [3] was 19%. The “% Aβ 40 reduction in rat CSF at 10 mpk” value in assay [4] is reported as 41%.

On to `C[C@]1(c2cc(Nc3nccc4nc(OCc5ncco5)cnc34)cc(F)c2F)N=C(N)S[C@@]2(CF)C[C@H]21` [Example 802, N-(3-((1S,5S,6S)-3-amino-1-(fluoromethyl)-5-methyl-2-thia-4-azabicyclo[4.1.0]hept-3-en-5-yl)-4,5-difluorophenyl)-2-(1,3-oxazol-2-ylmethoxy)pyrido[3,4-b]pyrazin-5-amine], for which the IC50 in assay [1] was 0.000992 µM; in assay [2], 310 µM; in assay [5] it was 0.0334 µM; in assay [6] it was 0.00497 µM. Moreover, the “% Aβ 40 reduction in rat brain at 10 mpk” value in assay [3] worked out at 50%. In addition, the “% Aβ 40 reduction in rat CSF at 10 mpk” value in assay [4] is 59%.

Turning to `C#CCOc1cnc2c(Nc3cnc(F)c([C@@]4(C)N=C(N)S[C@@]5([C@@H](O)C(F)(F)F)C[C@H]54)c3)nccc2n1` [Example 660, (1S)-1-((1S,5S,6S)-3-amino-5-(2-fluoro-5-((2-(2-propyn-1-yloxy)pyrido[3,4-b]pyrazin-5-yl)amino)-3-pyridinyl)-5-methyl-2-thia-4-azabicyclo[4.1.0]hept-3-en-1-yl)-2,2,2-trifluoroethanol], the IC50 in assay [1] is 0.00133 µM; in assay [2] it was 554 µM; in assay [5], 0.0235 µM; in assay [6], 0.00345 µM. Further, the “% Aβ 40 reduction in rat brain at 10 mpk” value in assay [3] is 26%. The “% Aβ 40 reduction in rat CSF at 10 mpk” value in assay [4] is given as 38%.

Regarding `N#Cc1cnc2c(Nc3cc(F)c(F)c([C@@]4(CF)N=C(N)S[C@H]5C[C@H]54)c3)ncnc2c1` [Example 28, 4-((3-((1S,5S,6S)-3-amino-5-(fluoromethyl)-2-thia-4-azabicyclo[4.1.0]hept-3-en-5-yl)-4,5-difluorophenyl)amino)pyrido[3,2-d]pyrimidine-7-carbonitrile], the results for the IC50 in assay [2] (Cathepsin D FRET enzyme assay), in assay [5] (BACE2 FRET enzyme assay) and in assay [6] (BACE1 cell-based assay) were 466 µM, 0.0497 µM and 0.0204 µM, respectively. For the same molecule, the “% Aβ 40 reduction in rat brain at 10 mpk” value in assay [3] is reported as 26%. For the same molecule, the “% Aβ 40 reduction in rat CSF at 10 mpk” value in assay [4] was 42%.

Turning to `C[C@]1(c2cc(Nc3ncnc4cc(C#N)cnc34)cc(F)c2F)N=C(N)S[C@H]2C[C@H]21` [Example 36, 4-((3-((1S,5S,6S)-3-amino-5-methyl-2-thia-4-azabicyclo[4.1.0]hept-3-en-5-yl)-4,5-difluorophenyl)amino)pyrido[3,2-d]pyrimidine-7-carbonitrile], the half-maximal inhibitory concentration (IC50) in assay [2] (Cathepsin D FRET enzyme assay) came to 250 µM; in assay [5] (BACE2 FRET enzyme assay), 0.0562 µM; in assay [6] (BACE1 cell-based assay), 0.00767 µM. For the same molecule, the “% Aβ 40 reduction in rat brain at 10 mpk” value in assay [3] is recorded as 46%. Also, the “% Aβ 40 reduction in rat CSF at 10 mpk” value in assay [4] is 74%.
